Reference: PubChem BioAssay AID1963979 (Molecular Pharmacology Branch, DTP, NCI, 2024)

Test system: 361931-004-R-J1-PDC multicell spheroid viability
Assay: Anticancer human tumor 361931-004-R-J1-PDC patient-derived colon adenocarcinoma cell line growth inhibition [PI3K]
Conditions: for IC50: curve of first compound; for viability, T/C: stronger effect = lower value
Outline: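 Stroma-containing spheroids: tumor line, pooled-donor HUVEC, hMSC. Treatments: targeted agents with PI3K inhibitors. Dosing: clinically relevant, half-log spacing, 10 microM ceiling without known Cmax. Read-out: cell viability.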

[1] = second compound 0.0316 µM, first compound 0.0316 µM
[2] = second compound 0.0316 µM, first compound 0.1 µM
[3] = second compound 0.0316 µM, first compound 0.316 µM
[4] = second compound 0.0316 µM, first compound 1 µM
[5] = second compound 0.0316 µM, first compound 3.16 µM
[6] = second compound 0.0316 µM, first compound 10 µM
[7] = second compound 0.1 µM, first compound 0.0316 µM
[8] = second compound 0.1 µM, first compound 0.1 µM
[9] = second compound 0.1 µM, first compound 0.316 µM
[10] = second compound 0.1 µM, first compound 1 µM
[11] = second compound 0.1 µM, first compound 3.16 µM
[12] = second compound 0.1 µM, first compound 10 µM
[13] = second compound 0.316 µM, first compound 0.0316 µM
[14] = second compound 0.316 µM, first compound 0.1 µM
[15] = second compound 0.316 µM, first compound 0.316 µM
[16] = second compound 0.316 µM, first compound 1 µM
[17] = second compound 0.316 µM, first compound 3.16 µM
[18] = second compound 0.316 µM, first compound 10 µM
[19] = second compound 1 µM, first compound 0.0316 µM
[20] = second compound 1 µM, first compound 0.1 µM
[21] = second compound 1 µM, first compound 0.316 µM
[22] = second compound 1 µM, first compound 1 µM
[23] = second compound 1 µM, first compound 3.16 µM
[24] = second compound 1 µM, first compound 10 µM
[25] = second compound 3.16 µM, first compound 0.0316 µM
[26] = second compound 3.16 µM, first compound 0.1 µM
[27] = second compound 3.16 µM, first compound 0.316 µM
[28] = second compound 3.16 µM, first compound 1 µM
[29] = second compound 3.16 µM, first compound 3.16 µM
[30] = second compound 3.16 µM, first compound 10 µM
[31] = second compound 10 µM, first compound 0.0316 µM
[32] = second compound 10 µM, first compound 0.1 µM
[33] = second compound 10 µM, first compound 0.316 µM
[34] = second compound 10 µM, first compound 1 µM
[35] = second compound 10 µM, first compound 3.16 µM
[36] = second compound 10 µM, first compound 10 µM
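Note: spheroids exposed to agents for seven days before readout.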

CCCS(=O)(=O)Nc1ccc(F)c(C(=O)c2c[nH]c3ncc(-c4ccc(Cl)cc4)cc23)c1F + Cc1nc(NC(=O)N2CCCC2C(N)=O)sc1-c1ccnc(C(C)(C)C(F)(F)F)c1
IC50 (second compound 0.0316 µM): 4.92 µM | IC50 (second compound 0.1 µM): 5.57 µM | IC50 (second compound 0.316 µM): 5.01 µM | IC50 (second compound 1 µM): 3.5 µM | IC50 (second compound 3.16 µM): 2.09 µM | IC50 (second compound 10 µM): 0.624 µM | viability, T/C [1]: 96.2% | viability, T/C [2]: 101% | viability, T/C [3]: 88.6% | viability, T/C [4]: 99.7% | viability, T/C [5]: 78.4% | viability, T/C [6]: 4.57% | viability, T/C [7]: 107% | viability, T/C [8]: 86.1% | viability, T/C [9]: 87.2% | viability, T/C [10]: 91.6% | viability, T/C [11]: 95.5% | viability, T/C [12]: 4.97% | viability, T/C [13]: 94.3% | viability, T/C [14]: 92.1% | viability, T/C [15]: 80.7% | viability, T/C [16]: 86.9% | viability, T/C [17]: 80.5% | viability, T/C [18]: 4.14% | viability, T/C [19]: 89.2% | viability, T/C [20]: 88.8% | viability, T/C [21]: 75.9% | viability, T/C [22]: 73.3% | viability, T/C [23]: 57.3% | viability, T/C [24]: 3.96% | viability, T/C [25]: 77.1% | viability, T/C [26]: 75.2% | viability, T/C [27]: 60.3% | viability, T/C [28]: 59.1% | viability, T/C [29]: 48.7% | viability, T/C [30]: 3.13% | viability, T/C [31]: 70.6% | viability, T/C [32]: 68.6% | viability, T/C [33]: 54.2% | viability, T/C [34]: 43.5% | viability, T/C [35]: 30.7% | viability, T/C [36]: 1.96%

C[C@@H](NC(=O)c1ncnc(N)c1Cl)c1ncc(C(=O)Nc2cc(C(F)(F)F)c(Cl)cn2)s1 + Cc1nc(NC(=O)N2CCCC2C(N)=O)sc1-c1ccnc(C(C)(C)C(F)(F)F)c1
IC50 (second compound 0.0316 µM): > 10 µM | IC50 (second compound 0.1 µM): > 10 µM | IC50 (second compound 0.316 µM): > 10 µM | IC50 (second compound 1 µM): > 10 µM | IC50 (second compound 3.16 µM): 4.93 µM | IC50 (second compound 10 µM): 0.41 µM | viability, T/C [1]: 104% | viability, T/C [2]: 106% | viability, T/C [3]: 80.8% | viability, T/C [4]: 97.3% | viability, T/C [5]: 92.9% | viability, T/C [6]: 85.5% | viability, T/C [7]: 110% | viability, T/C [8]: 104% | viability, T/C [9]: 89.1% | viability, T/C [10]: 106% | viability, T/C [11]: 92.9% | viability, T/C [12]: 80.5% | viability, T/C [13]: 102% | viability, T/C [14]: 100% | viability, T/C [15]: 99.3% | viability, T/C [16]: 89% | viability, T/C [17]: 101% | viability, T/C [18]: 78% | viability, T/C [19]: 104% | viability, T/C [20]: 95.8% | viability, T/C [21]: 93.3% | viability, T/C [22]: 88.8% | viability, T/C [23]: 84.2% | viability, T/C [24]: 60.9% | viability, T/C [25]: 89.9% | viability, T/C [26]: 84.8% | viability, T/C [27]: 76.1% | viability, T/C [28]: 70.4% | viability, T/C [29]: 67.1% | viability, T/C [30]: 31% | viability, T/C [31]: 77.8% | viability, T/C [32]: 59% | viability, T/C [33]: 55.6% | viability, T/C [34]: 41.7% | viability, T/C [35]: 22% | viability, T/C [36]: 3.55%

Cn1ncnc1[C@H]1c2n[nH]c(=O)c3cc(F)cc(c23)N[C@@H]1c1ccc(F)cc1 + Cc1nc(NC(=O)N2CCCC2C(N)=O)sc1-c1ccnc(C(C)(C)C(F)(F)F)c1
IC50 (second compound 0.0316 µM): > 0.1 µM | IC50 (second compound 0.1 µM): > 0.1 µM | IC50 (second compound 0.316 µM): > 0.1 µM | IC50 (second compound 1 µM): > 0.1 µM | IC50 (second compound 3.16 µM): > 0.1 µM | IC50 (second compound 10 µM): 0.0484 µM | viability, T/C (second compound 0.0316 µM, first compound 0.000316 µM): 98% | viability, T/C (second compound 0.0316 µM, first compound 0.001 µM): 93.1% | viability, T/C (second compound 0.0316 µM, first compound 0.00316 µM): 97.3% | viability, T/C (second compound 0.0316 µM, first compound 0.01 µM): 93% | viability, T/C [1]: 79.8% | viability, T/C [2]: 85.3% | viability, T/C (second compound 0.1 µM, first compound 0.000316 µM): 109% | viability, T/C (second compound 0.1 µM, first compound 0.001 µM): 93.6% | viability, T/C (second compound 0.1 µM, first compound 0.00316 µM): 94.5% | viability, T/C (second compound 0.1 µM, first compound 0.01 µM): 93.2% | viability, T/C [7]: 86.5% | viability, T/C [8]: 76.8% | viability, T/C (second compound 0.316 µM, first compound 0.000316 µM): 98.2% | viability, T/C (second compound 0.316 µM, first compound 0.001 µM): 86.1% | viability, T/C (second compound 0.316 µM, first compound 0.00316 µM): 81.7% | viability, T/C (second compound 0.316 µM, first compound 0.01 µM): 81.8% | viability, T/C [13]: 83.5% | viability, T/C [14]: 80.8% | viability, T/C (second compound 1 µM, first compound 0.000316 µM): 87.3% | viability, T/C (second compound 1 µM, first compound 0.001 µM): 73.4% | viability, T/C (second compound 1 µM, first compound 0.00316 µM): 84.5% | viability, T/C (second compound 1 µM, first compound 0.01 µM): 79.4% | viability, T/C [19]: 90.1% | viability, T/C [20]: 70.3% | viability, T/C (second compound 3.16 µM, first compound 0.000316 µM): 70.4% | viability, T/C (second compound 3.16 µM, first compound 0.001 µM): 81.8% | viability, T/C (second compound 3.16 µM, first compound 0.00316 µM): 77.4% | viability, T/C (second compound 3.16 µM, first compound 0.01 µM): 66.9% | viability, T/C [25]: 72.6% | viability, T/C [26]: 62.2% | viability, T/C (second compound 10 µM, first compound 0.000316 µM): 62.2% | viability, T/C (second compound 10 µM, first compound 0.001 µM): 54.5% | viability, T/C (second compound 10 µM, first compound 0.00316 µM): 54% | viability, T/C (second compound 10 µM, first compound 0.01 µM): 56.6% | viability, T/C [31]: 47.9% | viability, T/C [32]: 49.2%
